Experimental data published in US9982237B2, “Compositions and methods for reprograming non-pluripotent cells into pluripotent stem cells” (Hong Guan Ltd., priority 2013, dated 2018).

What was measured:
Assay type in all cases: cell-based, mouse
[1] = tested on: MEFs; assay: CiPSC induction by small-molecule combinations, primary CiPSC colonies counted; details: for replacement of DZNep in CiPSC generation: in combination with VC6TF
Experimental: The initial cells (MEFs, MNFs, MAFs or ADSCs) were seeded at a density of 50,000 cells per well of a 6-well plate or 300,000 cells per 100 mm dish. On the next day (day 0), the original medium was replaced with chemical reprogramming medium containing the small-molecule combinations. The small-molecule combinations-containing medium was changed every 4 days. On day 12, these cells were washed in PBS and digested with 0.25% Trypsin-EDTA (Invitrogen) at 37° C. for 3-5 min. After neutralization, the cell clumps were dissociated into single cells by thorough pipetting. The cells were harvested (300,000-1,000,000 cells per well of a 6-well plate) and replated at a density of 300,000-500,000 cells per well of a 6-well plate in the chemical reprogramming medium containing the small-molecule combinations. DZNep was added to the cell cultures on day 16 or day 20. On day 28-36, the small-molecule combinations including DZNep were removed. Meanwhile, the chemical reprogramming medium was replaced with 2i-medium. After another 8-12 days, 2i-competent, ESC-like and GFP-positive colonies were counted as primary CiPSC colonies. For CiPSC induction from wild-type cells without OG reporter, 2i-competent and ESC-like colonies were counted as primary CiPSC colonies. These CiPSC colonies were picked up for expansion and characterization. Alternatively, CiPSCs could be induced without replating on day 12.

[2] = tested on: MEFs from OG mice; assay: Screen for small molecules that facilitate late reprogramming (DOX-inducible Oct4 plus VC6T)
Experimental: To identify small molecules that facilitate late reprogramming, a doxycycline (DOX)-inducible Oct4 expression screening system was used (Li, et al., Cell Res. 21:196-204 (2011)).
MEFs from OG mice were plated as described above and infected with Fu-tet-hOct4 and FUdeltaGW-rtTA lentiviruses. The induction protocol was carried out as described above.
After infection, the culture medium was replaced with LIF-free ESC culture medium containing VC6T (VPA, CHIR99021, 616452, Tranylcypromine) plus DOX (1 μg/ml). Alternatively, MEFs harboring DOX-inducible Oct4 from Tet-On POU5F1 mouse strain B6; 129-Gt(ROSA)26Sor^tm1(rTA*M2)Jae COl1a1^tm2(tetO-Pou5f1)Jae/J were used in this screen (Li, et al., Cell Res., 21:196-204 (2011)). These two DOX-inducible systems were only used in this screen, but not in complete chemical reprogramming. Individual chemicals from small-molecule libraries were added to each well. Small molecules were added at different culture time points. 5-aza-C (5-Azacytidine) and DZNep were added from day 8. The medium and chemicals were changed every 4 days; DOX was added only for the first 4-8 days. Chemical treatments were continued for 16-24 days or until GFP-positive colonies appeared. Primary hits were selected for further confirmation and optimization. CiPSC colonies were counted on day 44. […]

[3] = tested on: MEFs from OG mice; assay: Screen for chemical substitutes of Oct4 in OG-MEFs infected with Sox2, Klf4 and c-Myc; details: OG-MEFs with viral expression of Sox2, Klf4 and c-Myc
Experimental: To identify chemical substitutes of Oct4, MEFs from OG mice were plated at a density of 20,000 cells per well of a 12-well plate and infected with lentiviruses encoding Sox2, Klf4 and c-Myc. After infection, the medium was replaced with LIF-free ESC culture medium. Individual chemicals from small-molecule libraries were added to each well. The medium and chemicals were changed every 4 days. Chemical treatments were continued for 14-20 days or until GFP-positive colonies appeared. Primary hits were selected for further confirmation and optimization.
Small molecules that enable reprogramming in the absence of Oct4 were searched using Oct4 promoter-driven green fluorescent protein (GFP) expression (OG) mouse embryonic fibroblasts (MEFs), with viral expression of Sox2, Klf4, and c-Myc.

[4] = tested on: pluripotency-related genes; assay: Gene expression during chemical reprogramming (real-time PCR, RNA-seq); details: for activation of endogenous expression of Sall4 and Sox2: withdrawal from VC6TF, after 12 days
[5] = tested on: cAMP level in MEF; assay: Intracellular cAMP quantification (Direct cAMP ELISA); details: FSK 10 μM, versus DMSO control
Experimental: (§1) cAMP was quantified using the Direct cAMP ELISA Kit (Enzo) according to the manufacturer's protocol. For SAM and SAH quantification, cultured cells (1,000,000 cells) were trypsinized and homogenized by ultrasonication in 200 μl PBS. Then 40 μl of 400 mg/ml TCA was added. Cell extracts were incubated on ice for 30 min. After centrifugation at 4° C. (13,000 rpm, 15 min), the supernatants were filtered through a 0.22 μm filter and analyzed by high-performance liquid chromatography (HPLC, Shimadzu) with HILIC columns (Waters).
The effect of inhibiting adenylate cyclase on the number of colonies generated by VC6TFZ was tested. […] The effect of replacing FSK with the cAMP analog (DBcAMP), alone or in combination with phosphodiesterase inhibitors, IBMX, or the phosphodiesterase inhibitor, rolipram and IBMX, on cell reprogramming was also tested. Both DBcAMP and IBMX were used at 50 μM in the combination treatment.

[6] = tested on: Oct4 promoter; assay: DNA methylation at the Oct4 promoter during chemical reprogramming
From the text: Genomic DNA was modified by bisulfite treatment and purified using the MethylCode™ Bisulfite Conversion Kit (Invitrogen) according to the manufacturer's protocol. The amplified fragments were cloned into the pEASY-blunt Vector (Transgene). Ten randomly picked clones from each sample were sequenced.
(§2) The function of DZNep in inducing CiPSCs could not be replaced by down-regulating Ezh2 expression (FIGS. 14C-E). GFP+/ES-like colonies in the primary culture, unlike other colonies, express high mRNA level of Nanog and low level of Gata6, resembling ESCs and the established CiPSCs (data not shown). As master pluripotency genes, Oct4 and Sox2 may thereby activate other pluripotency-related genes and fulfill the chemical reprogramming process, along with the activation of Nanog and the silencing of Gata6, in the presence of 2i (Silva, et al., PLoS Biol. 6:e253 (2008), Theunissen, et al., Curr. Biol., 21:65-71 (2011). Boyer, et al., Cell, 122:947-956(2005); Chazaud, at al., Dev. Cell, 10:615-624 (2006)).

[7] = tested on: concentration ratio of SAH to SAM; assay: SAH and SAM quantification by HPLC
Experimental: as §1
Next, the role of DZNep, which was added in the late phase of chemical reprogramming was investigated. […] As an SAH hydrolase inhibitor, DZNep elevates the concentration ratio of SAH to S-adenosylmethionine (SAM) and may thereby repress the SAM-dependent cellular methylation process (FIG. 14A).

[8] = tested on: Oct4 promoter; assay: Chromatin immunoprecipitation, H3K9 methylation at the Oct4 promoter
Experimental: ChIP was performed using the EZ-Magna ChIP A/G Kit (Millipore) according to the manufacturer's protocol. Anti-H3K27me3 (Abcam, ab6002), anti-H3K9me2 (Millipore, 07-441), anti-H3K4me3 (Abcam, ab8580) and anti-H3K9ac (Abcam, ab4441) antibodies were used. Following immunoprecipitation, DNA was analyzed by real-time PCR.
as §2

C/C(=C\c1ccc(C(=O)O)cc1)c1ccc2c(c1)C(C)(C)CCC2(C)C [TTNPB, 4-[(E)-2-(5,6,7,8-Tetrahydro-5,5,8,8-tetramethyl-2-naphthalenyl)-1-propenyl]benzoic acid]
enhancement of chemical reprogramming efficiency, factor ([1]; booster added to chemical reprogramming in MEFs): ≤ 40
chemical reprogramming frequency ([1]; with booster TTNPB): up to 0.2%

CCCC(=O)[O-].[Na+] [sodium butyrate, Sodiumbutyane]
hit facilitating late reprogramming [2]: identified in this screen

Nc1ncnc2c1ncn2[C@@H]1C=C(CO)[C@@H](O)[C@H]1O [NEPA, (−)Neplanocin A]
replacement of DZNep in CiPSC generation [1]: useful in replacing DZNep in reprogramming

Cc1[nH]c2ccc(O)cc2c1CCN [2-Me-5HT, 2-Methyl-5-hydroxytryptamine hydrocholoride]
reprogramming in the absence of Oct4 (chemical substitute for Oct4) [3]: identified as chemical “substitutes” for Oct4

C=C[C@@]1(C)CC(=O)[C@]2(O)[C@@]3(C)[C@@H](O)CCC(C)(C)[C@@H]3[C@H](O)[C@H](OC(C)=O)[C@@]2(C)O1 [Forskolin]
reprogramming in the absence of Oct4 (chemical substitute for Oct4) [3]: identified as chemical “substitutes” for Oct4
hit facilitating late reprogramming [2]: identified in this screen
activation of endogenous expression of Sall4 and Sox2 [4]: essential in activating
cAMP level [5]: significantly elevates

CCCCC[C@H](O)/C=C/[C@H]1[C@H](O)CC(=O)[C@@H]1C/C=C\CCCC(=O)O [Prostaglandin E2]
hit facilitating late reprogramming [2]: identified in this screen

Nc1ncn([C@@H]2O[C@H](CO)[C@@H](O)[C@H]2O)c(=O)n1 [5-Azacytidine]
hit facilitating late reprogramming [2]: identified in this screen

Nc1nccc2c1ncn2[C@@H]1C=C(CO)[C@@H](O)[C@H]1O [DZNep, 3-deazaneplanocin A]
DNA methylation at the Oct4 promoter [6]: significantly decreased
concentration ratio of SAH to S-adenosylmethionine (SAM) [7]: elevates
hit facilitating late reprogramming [2]: identified in this screen
Oct4 expression ([4]; after addition of DZNep in chemical reprogramming): enhanced significantly
H3K9 methylation at the Oct4 promoter [8]: significantly decreased

COc1ccc(C2CNC(=O)C2)cc1OC1CCCC1 (centres unmarked) [Rolipram]
hit facilitating late reprogramming [2]: identified in this screen

NC(=O)c1ccc(-c2nc(-c3ccc4c(c3)OCCO4)c(-c3ccccn3)[nH]2)cc1 [D4476]
reprogramming in the absence of Oct4 (chemical substitute for Oct4) [3]: identified as chemical “substitutes” for Oct4

Cc1cccc(-c2n[nH]cc2-c2ccc3ncccc3n2)n1 [compound 616452, 2-(3-(6-Methylpyridin-2-yl)-1H-pyrazol-4-yl)-1,5-naphthyridine]
activation of endogenous expression of Sall4 and Sox2 [4]: essential in activating

Nc1nccc2c1ncn2C1OC(CO)C(O)C1O (centres unmarked) [DZA, 3-Deamadenoxine]
replacement of DZNep in CiPSC generation [1]: useful in replacing DZNep in reprogramming

Cc1cnc(-c2cnc(NCCNc3ccc(C#N)cn3)nc2-c2ccc(Cl)cc2Cl)[nH]1 [CHIR99021, 6-[[2-[[4-(2,4-Dichlorophenyl)-5-(5-methyl-1H-imidazol-2-yl)-2-pyrimidinyl]amino]ethyl]amino]-3-pyridinecarbonitrile]
activation of endogenous expression of Sall4 and Sox2 [4]: essential in activating

Nc1ncnc2c1ncn2C(C=O)OC(C=O)CO (centres unmarked) [ADOX, Adenosine periodate oxidized]
replacement of DZNep in CiPSC generation [1]: useful in replacing DZNep in reprogramming

bFGF: recombinant basic fibroblast growth factor
requirement in inducing CiPSCs ([1]; FIG. 5G): necessary in inducing CiPSCs
